Results reported in the NIST ThermoML archive (doi:10.1016/j.fluid.2015.07.023).
Numbers after ± are expanded uncertainties.

How the values were obtained:
[1] = refractive index (Na D-line) (dimensionless); settings: 298.15 K; 101.33 kPa; Liquid; Standard Abbe refractometry
[2] = 298.15 K; 101.33 kPa; Liquid; mechanical oscillator

| refractive index [1] | mass density [2] | Compound |
| --- | --- | --- |
| 1.32666 ± 0.00068 | 786.62 ± 0.21 kg/m3 | CO [methanol] |
| 1.3653 ± 0.0007 | 718.3 ± 0.3 kg/m3 | CC(C)OC(C)C [diisopropyl ether] |
| 1.37522 ± 0.00068 | 782.45 ± 0.21 kg/m3 | CC(C)O [propan-2-ol] |
